Key:
95-D = assay: In vitro MTT (proliferation) assay; type: cell-based; conditions: Lung
SGC7901 = assay: In vitro MTT (proliferation) assay; type: cell-based; conditions: Homo sapiens, SGC-7901, Stomach
[1] = tested on: murine colorectal CT26 cell line; assay: Murine colorectal CT26 model, combination with anti-mouse PD-1 antibody; type: in vivo, mice; conditions: for Mean tumor volume D0: D0 (first drug administration time, baseline); for Mean tumor volume D0 / Mean tumor volume D17 / T/C D17: CT26 mice
[2] = tested on: colon cancer cell line HT29; assay: Combination therapy MTT assay; type: cell-based, human
Procedure: (§1) Compound A-Xln combination therapy MTT assay results were investigated. 100 μl of cell suspension with a concentration of 5×10^4 cells/ml was added to each well of a 96-well plate, and place in a 37° C., 5% CO2 incubator. After 24 h, Compound A-Xln sample solution was added according to Table 13, 10 μl/well for double-duplicate wells. After 72 hours at 37° C. and 5% CO2 incubation, 20 μl of 5 mg/ml MTT solution was added to each well, then 100 µl/well of dissolving solution was added after 4 hours. The samples were put in an incubator, and a full-wavelength multifunctional enzyme label machine was used after dissolving. The OD value at 570 nm was measured.
(§2) Samples according to Table 14 were also tested for proliferation inhibitor of three colon cancer lines HT29, HCT116 and colo205 by Compound A-Xln, anti-colon cancer agent 5FU/O, and combination of Compound A-Xln and 5FU/O. The results are shown in FIGS. 15-17.

[3] = tested on: colon cancer cell line HCT116; assay: Combination therapy MTT assay; type: cell-based, human
Procedure: as §1, §2

[4] = tested on: colon cancer cell line colo205; assay: Combination therapy MTT assay; type: cell-based, human
Procedure: as §1, §2

SKBR3 = assay: In vitro MTT (proliferation) assay; type: cell-based; conditions: Homo sapiens, SK-BR-3, Breast
liver Bel-7420 = assay: In vivo xenograft model; design: species or system nude mouse; conditions: Bel-7420 xenograft, oral daily 14-21 days, tumor weight vs control
Procedure: (§3) Animal antitumor activity in vivo xenograft models with various tumor cell lines (SCLC NCI-H1436, NSCLC 95-D, ovarian SKVO3, renal 786-O, liver Bel-7420, brain U87) were performed as follows: The well grown tumor tissues of tumor cell lines were cut into 3 mm pieces, and each nude mouse was subcutaneously inoculated with one piece into the right flank. The animals were grouped and administered at pre-designed dosing. Treatments were initiated when the tumor size reached above 100 mm^3 after 10-14 days. According to the size of tumor, the animals with oversize or undersize tumors were eliminated, and the animals were grouped with similar average tumor volume. Then the animals were orally administrated daily for continuous 14-21 days. The large diameter a (mm) and the small diameter b (mm) were measured with caliper twice a week after inoculation for 13 days. Each tumor volume was calculated by formular: TV=ab^2/2 and the relative tumor volume was calculated as: RTV=Vt/Vo, Vo represents the tumor volume on the first day of treatment; Vt represents the tumor volume on each measurement day. The animals were executed and tumors were extracted by dissection 20-30 days after inoculation. The individual body weight and tumor weight were determined and calculated. Tumor Inhibit percentage was calculated as [1−((TWt)/(TWc)×100%, where TWt represents mean tumor weight of a treated group on the last day during the experiment, TWc represents mean tumor weight of the control group on the last day during the experiment. Experimental dosing and efficacy results are shown in FIGS. 19-24 of Drawing. The best tumor inhibition percentage ranges are >70% to 100%.

NSCLC 95-D = assay: In vivo xenograft model; design: species or system nude mouse; conditions: 95-D xenograft, oral daily 14-21 days, tumor weight vs control
Procedure: as §3

ovarian SKVO3 = assay: In vivo xenograft model; design: species or system nude mouse; conditions: oral daily 14-21 days, tumor weight vs control
Procedure: as §3

SCLC NCI-H1436 = assay: In vivo xenograft model; design: species or system nude mouse; conditions: oral daily 14-21 days, tumor weight vs control
Procedure: as §3

brain U87 = assay: In vivo xenograft model; design: species or system nude mouse; conditions: oral daily 14-21 days, tumor weight vs control
Procedure: as §3

renal 786-O = assay: In vivo xenograft model; design: species or system nude mouse; conditions: 786-O xenograft, oral daily 14-21 days, tumor weight vs control
Procedure: as §3

KDR(h) (VEGFr2) = KDR(h) (VEGFr2) (Homo sapiens, UniProt P35968); assay: Kinase inhibition; type: biochemical
Excerpt: […]. In vitro tyrosine kinase inhibition activities can be measured via commercial resources. Some of these tests can also be contracted with Eurofin or Reaction Biology for screening.
For the kinase inhibition tests, receptor tyrosine kinases are selected from FGFR1(h), FGFR2(h), FGFR3(h), Flt1(h) (VEGFr1), Flt4(h) (VEGFr3), KDR(h) (VEGFr2), Aurora-B, PDGFRα(h) and PDGFRβ(h). […]. […]

KDR(h) (VEGFr2), sequence (P35968 20-1356): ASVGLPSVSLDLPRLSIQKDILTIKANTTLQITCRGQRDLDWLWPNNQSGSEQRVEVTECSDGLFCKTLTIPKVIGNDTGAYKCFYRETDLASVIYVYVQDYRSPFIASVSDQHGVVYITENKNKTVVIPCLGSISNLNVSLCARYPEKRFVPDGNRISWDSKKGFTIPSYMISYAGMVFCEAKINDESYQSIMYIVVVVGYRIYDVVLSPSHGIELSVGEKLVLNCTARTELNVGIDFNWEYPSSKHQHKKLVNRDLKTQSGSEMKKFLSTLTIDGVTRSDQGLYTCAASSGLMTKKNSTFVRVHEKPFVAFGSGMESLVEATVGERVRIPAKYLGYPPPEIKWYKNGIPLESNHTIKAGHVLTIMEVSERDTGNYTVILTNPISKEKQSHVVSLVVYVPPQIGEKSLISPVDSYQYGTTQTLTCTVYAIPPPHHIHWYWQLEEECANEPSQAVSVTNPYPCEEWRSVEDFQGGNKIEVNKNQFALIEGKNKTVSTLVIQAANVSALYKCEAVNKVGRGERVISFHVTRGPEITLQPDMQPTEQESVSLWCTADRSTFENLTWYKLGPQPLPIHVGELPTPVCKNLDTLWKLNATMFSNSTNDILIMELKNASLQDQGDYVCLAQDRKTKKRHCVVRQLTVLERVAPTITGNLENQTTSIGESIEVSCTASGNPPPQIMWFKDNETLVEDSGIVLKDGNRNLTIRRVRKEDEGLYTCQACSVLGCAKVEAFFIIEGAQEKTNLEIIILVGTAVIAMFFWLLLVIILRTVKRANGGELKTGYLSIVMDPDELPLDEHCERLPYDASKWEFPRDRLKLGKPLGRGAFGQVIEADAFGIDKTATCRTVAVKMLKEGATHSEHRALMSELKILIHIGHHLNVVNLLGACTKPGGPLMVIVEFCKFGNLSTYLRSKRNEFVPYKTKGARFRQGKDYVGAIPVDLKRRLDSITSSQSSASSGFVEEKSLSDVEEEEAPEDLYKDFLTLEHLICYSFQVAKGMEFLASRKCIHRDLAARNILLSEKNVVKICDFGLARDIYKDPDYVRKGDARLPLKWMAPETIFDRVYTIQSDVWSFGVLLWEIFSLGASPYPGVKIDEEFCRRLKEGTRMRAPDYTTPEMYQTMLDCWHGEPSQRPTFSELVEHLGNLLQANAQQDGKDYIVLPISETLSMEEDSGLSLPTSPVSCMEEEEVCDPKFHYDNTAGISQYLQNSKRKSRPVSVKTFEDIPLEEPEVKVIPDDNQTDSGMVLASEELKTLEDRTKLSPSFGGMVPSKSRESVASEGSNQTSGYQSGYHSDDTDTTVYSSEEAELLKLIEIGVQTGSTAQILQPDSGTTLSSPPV

## COc1cc2c(Oc3ccc4[nH]c(C)cc4c3F)ccnc2cc1OCCN1CC(O)C2(CC2)C1 (centres unmarked) [Compound A-Xln, 5-(2-(4-(4-fluoro-2-methyl-1H-indol-5-yloxy)-6-methoxyquinolin-7-yloxy)ethyl)-5-azaspiro[2.4]-heptan-7-ol]
95-D
  IC50: 4.92 ± 2.26 µM
SGC7901
  IC50: 6.64 ± 0.81 µM
[1]; 5 mg/kg/Qd i.g.
  Mean tumor volume D0: 127.8 mm^3
  Mean tumor volume D17: 1625.3 mm^3
  T/C D17: 72.04%
[1]; 15 mg/kg/Qd i.g.
  Mean tumor volume D0: 128.5 mm^3
  Mean tumor volume D17: 829.0 mm^3
  T/C D17: 36.67%
[1]; CT26 model, Compound A-Xln once daily plus anti-mouse PD-1 200 μg/mouse every 3 days
  Efficacy of combination treatment with an anti-PD1 antibody agent: increased efficacy
[2]; HT29, Compound A-Xln and 5FU/O dosed Day 1/Day 2 in either order
  Inhibition activity in sequential dosing: higher activity on regimen of dosing chemotherapy agents first followed by dosing Compound A later
[2]; HT29, combined with 5FU/O
  Proliferation inhibition in combination: increased
[3]; HCT116, Compound A-Xln and 5FU/O dosed Day 1/Day 2 in either order
  Inhibition activity in sequential dosing: higher activity on regimen of dosing chemotherapy agents first followed by dosing Compound A later
[3]; HCT116, combined with 5FU/O
  Proliferation inhibition in combination: increased
[4]; colo205, Compound A-Xln and 5FU/O dosed Day 1/Day 2 in either order
  Inhibition activity in sequential dosing: higher activity on regimen of dosing chemotherapy agents first followed by dosing Compound A later
[4]; colo205, combined with 5FU/O
  Proliferation inhibition in combination: increased
SKBR3
  IC50: 12.2 ± 2 µM
Liver Bel-7420
  best tumor inhibition percentage: > 70%
NSCLC 95-D
  best tumor inhibition percentage: > 70%
Ovarian SKVO3
  best tumor inhibition percentage: > 70%
SCLC NCI-H1436
  best tumor inhibition percentage: > 70%
Brain U87
  best tumor inhibition percentage: > 70%
Renal 786-O
  best tumor inhibition percentage: > 70%
KDR(h) (VEGFr2)
  IC50: 15 nM

Reference: US20230399313A1, “BIOLOGICAL ACTIVITIES OF 5-(2-(4-(4-FLUORO-2-METHYL-1H-INDOL-5-YLOXY)-6-METHOXYQUINOLIN-7-YLOXY)ETHYL)-5-AZASPIRO[2.4]-HEPTAN-7-OL CRYSTALLINE, PHOSPHORIC ACID SALT AND ITS ENANTIOMERS” (Advenchen Pharmaceuticals, LLC, priority 2022, published 2023)
